Results as given in patent publication US11597762B2, “Treatment of a disease of the gastrointestinal tract with an IL-12/IL-23 inhibitor released using an ingestible device” (BIORA THERAPEUTICS, INC., priority 2016, dated 2023).

Assay: Tacrolimus tissue pharmacokinetics, oral vs intra-cecal ingestible device, in Yorkshire-Cross farm swine
Format: in vivo
Conditions: intra-cecal compared to oral, 12 hours post-dose, FIG. 76
Protocol: No further randomization procedure was employed.
Animals in Group 1 received an ingestible device containing 0.8 mL of vehicle solution (80% alcohol, 20% HCO-60). Animals in Group 2 received orally […] liquid formulation of tacrolimus at 4 mg/0.8 mL per animal (Prograf: 5 mg/mL). Animals in Group 3 received intra-cecally an ingestible device containing tacrolimus at 1 mg in 0.8 mL per ingestible device. Animals in Group 4 received intra-cecally an ingestible device containing tacrolimus at 2 mg in 0.8 mL per ingestible device. Animals in Group 5 received intra-cecally an ingestible device containing tacrolimus at 4 mg in 0.8 mL per ingestible device. […]
Approximately 200˜400 mg of rectal content were collected, if available, with a fecal swab (Copan Diagnostics Nylon Flocked Dry Swabs, 502CS01). The fecal swab was pre-weighed and weighed after collection in the collection tube (Sterile Tube and Cap No Media, PFPM913S), and the sample weight was recorded. […]
For tissue necropsy, small intestine fluid and cecal fluid were collected separately from all the animals into two separate square plastic bottles, and stored at −20° C. The length and diameter of the cecum and the colon was measured from one animal in each group and recorded for reference. […] All samples were weighed, and the tissue sample weights were recorded. […]

C=CC[C@@H]1/C=C(\C)C[C@H](C)C[C@H](OC)[C@H]2O[C@@](O)(C(=O)C(=O)N3CCCC[C@H]3C(=O)O[C@H](/C(C)=C/[C@@H]3CC[C@@H](O)[C@H](OC)C3)[C@H](C)[C@@H](O)CC1=O)[C@H](C)C[C@@H]2OC [tacrolimus]
mean concentration of tacrolimus in the cecum tissue: higher | mean concentration of tacrolimus in the proximate colon tissue: higher
